{"source": "ChEMBL document CHEMBL5465560", "about": "“Selectivity Literature for EUbOPEN Chemogenomic Library” (2024)", "key": {"[1]": {"biological_target": "T1, Serine/threonine-protein kinase Nek3 (Homo sapiens) (UniProt P51956)", "T1 sequence (whole entry)": "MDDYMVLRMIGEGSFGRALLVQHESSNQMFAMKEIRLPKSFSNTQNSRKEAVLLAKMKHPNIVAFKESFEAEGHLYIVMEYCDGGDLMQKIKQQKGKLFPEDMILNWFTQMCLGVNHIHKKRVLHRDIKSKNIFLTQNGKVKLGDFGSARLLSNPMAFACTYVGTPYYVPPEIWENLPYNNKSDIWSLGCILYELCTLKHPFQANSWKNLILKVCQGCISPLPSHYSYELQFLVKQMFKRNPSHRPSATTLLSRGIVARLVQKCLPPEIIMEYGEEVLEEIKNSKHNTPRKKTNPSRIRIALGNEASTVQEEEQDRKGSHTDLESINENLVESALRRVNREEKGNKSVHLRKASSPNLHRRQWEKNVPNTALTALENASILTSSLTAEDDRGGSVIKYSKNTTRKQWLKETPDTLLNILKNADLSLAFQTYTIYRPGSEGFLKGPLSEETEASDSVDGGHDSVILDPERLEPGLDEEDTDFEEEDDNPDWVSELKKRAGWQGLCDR", "assay": "Selectivity interaction (Upstate Kinase Profiler service (Millipore)) EUB0000056c NEK3", "settings": "at 1 µM"}, "[2]": {"biological_target": "Serine/threonine-protein kinase PAK 4 (Homo sapiens, UniProt O96013)", "sequence (O96013 whole entry)": "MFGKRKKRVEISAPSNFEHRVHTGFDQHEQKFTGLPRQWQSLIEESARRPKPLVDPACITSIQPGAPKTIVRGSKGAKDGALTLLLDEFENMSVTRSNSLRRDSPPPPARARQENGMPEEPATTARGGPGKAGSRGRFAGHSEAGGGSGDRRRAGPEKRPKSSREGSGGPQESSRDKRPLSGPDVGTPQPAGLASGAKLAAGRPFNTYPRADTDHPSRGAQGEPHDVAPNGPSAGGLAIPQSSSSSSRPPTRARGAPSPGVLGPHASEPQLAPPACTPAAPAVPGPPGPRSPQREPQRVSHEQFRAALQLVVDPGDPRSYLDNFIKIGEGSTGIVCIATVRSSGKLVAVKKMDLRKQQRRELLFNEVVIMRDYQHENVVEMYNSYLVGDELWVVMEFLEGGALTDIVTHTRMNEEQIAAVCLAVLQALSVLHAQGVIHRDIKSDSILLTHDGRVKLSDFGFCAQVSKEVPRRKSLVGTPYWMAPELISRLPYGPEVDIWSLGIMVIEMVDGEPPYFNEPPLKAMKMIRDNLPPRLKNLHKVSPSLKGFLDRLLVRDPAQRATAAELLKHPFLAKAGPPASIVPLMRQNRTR"}, "[3]": {"biological_target": "Casein kinase I isoform delta (Homo sapiens, UniProt P48730)", "sequence (P48730 whole entry, looked up, canonical isoform)": "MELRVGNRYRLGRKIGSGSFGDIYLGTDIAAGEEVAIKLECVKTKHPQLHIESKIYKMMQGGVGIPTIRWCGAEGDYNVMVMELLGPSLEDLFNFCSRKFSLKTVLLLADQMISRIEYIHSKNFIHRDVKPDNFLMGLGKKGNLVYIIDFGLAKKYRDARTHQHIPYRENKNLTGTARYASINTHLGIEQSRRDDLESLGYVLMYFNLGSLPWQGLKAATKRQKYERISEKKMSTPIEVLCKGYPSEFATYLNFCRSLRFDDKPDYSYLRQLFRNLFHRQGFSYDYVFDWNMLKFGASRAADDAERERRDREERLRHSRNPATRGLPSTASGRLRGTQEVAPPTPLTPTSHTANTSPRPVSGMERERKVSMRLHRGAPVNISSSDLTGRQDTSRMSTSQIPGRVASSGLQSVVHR", "assay": "Selectivity interaction (Kinase panel (literature)) EUB0001199aCl CSNK1D", "settings": "at 1 µM"}, "[4]": {"biological_target": "Serine/threonine-protein kinase pim-1 (Homo sapiens, UniProt P11309)", "sequence (P11309 whole entry, looked up)": "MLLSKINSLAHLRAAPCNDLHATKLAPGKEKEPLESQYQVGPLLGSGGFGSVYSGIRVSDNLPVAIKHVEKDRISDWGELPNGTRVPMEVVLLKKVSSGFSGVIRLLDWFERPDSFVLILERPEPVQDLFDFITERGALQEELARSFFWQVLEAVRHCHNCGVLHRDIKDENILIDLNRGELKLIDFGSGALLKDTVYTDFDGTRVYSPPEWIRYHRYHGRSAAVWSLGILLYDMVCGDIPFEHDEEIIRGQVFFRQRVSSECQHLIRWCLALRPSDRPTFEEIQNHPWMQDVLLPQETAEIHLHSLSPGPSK", "assay": "Selectivity interaction (KinomeScan (DiscoverX)) EUB0000607a PIM1", "settings": "at 10 µM"}, "[5]": {"biological_target": "T2, Serine/threonine-protein kinase Nek11 (Homo sapiens) (UniProt Q8NG66)", "T2 sequence (whole entry)": "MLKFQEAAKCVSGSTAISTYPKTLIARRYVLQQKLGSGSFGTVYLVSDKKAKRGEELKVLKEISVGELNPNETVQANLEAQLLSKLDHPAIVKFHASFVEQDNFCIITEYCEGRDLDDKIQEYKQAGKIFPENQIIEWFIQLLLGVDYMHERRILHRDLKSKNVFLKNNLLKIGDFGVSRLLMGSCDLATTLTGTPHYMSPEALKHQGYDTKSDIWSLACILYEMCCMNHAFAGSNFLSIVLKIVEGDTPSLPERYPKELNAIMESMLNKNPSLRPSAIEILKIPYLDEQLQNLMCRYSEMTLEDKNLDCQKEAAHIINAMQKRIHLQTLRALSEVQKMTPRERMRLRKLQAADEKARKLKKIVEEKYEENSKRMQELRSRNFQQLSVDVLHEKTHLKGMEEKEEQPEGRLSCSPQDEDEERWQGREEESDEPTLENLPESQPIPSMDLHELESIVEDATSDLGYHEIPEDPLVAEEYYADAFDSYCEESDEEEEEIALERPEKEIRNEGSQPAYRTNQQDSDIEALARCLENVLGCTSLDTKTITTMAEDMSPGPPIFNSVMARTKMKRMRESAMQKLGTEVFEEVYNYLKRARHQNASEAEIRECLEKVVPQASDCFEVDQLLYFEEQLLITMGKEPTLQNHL", "assay": "Selectivity interaction (KinomeScan (DiscoverX)) EUB0000618a NEK11", "settings": "at 10 µM"}, "[6]": {"biological_target": "Epidermal growth factor receptor (Homo sapiens, UniProt P00533)", "sequence (P00533 whole entry)": "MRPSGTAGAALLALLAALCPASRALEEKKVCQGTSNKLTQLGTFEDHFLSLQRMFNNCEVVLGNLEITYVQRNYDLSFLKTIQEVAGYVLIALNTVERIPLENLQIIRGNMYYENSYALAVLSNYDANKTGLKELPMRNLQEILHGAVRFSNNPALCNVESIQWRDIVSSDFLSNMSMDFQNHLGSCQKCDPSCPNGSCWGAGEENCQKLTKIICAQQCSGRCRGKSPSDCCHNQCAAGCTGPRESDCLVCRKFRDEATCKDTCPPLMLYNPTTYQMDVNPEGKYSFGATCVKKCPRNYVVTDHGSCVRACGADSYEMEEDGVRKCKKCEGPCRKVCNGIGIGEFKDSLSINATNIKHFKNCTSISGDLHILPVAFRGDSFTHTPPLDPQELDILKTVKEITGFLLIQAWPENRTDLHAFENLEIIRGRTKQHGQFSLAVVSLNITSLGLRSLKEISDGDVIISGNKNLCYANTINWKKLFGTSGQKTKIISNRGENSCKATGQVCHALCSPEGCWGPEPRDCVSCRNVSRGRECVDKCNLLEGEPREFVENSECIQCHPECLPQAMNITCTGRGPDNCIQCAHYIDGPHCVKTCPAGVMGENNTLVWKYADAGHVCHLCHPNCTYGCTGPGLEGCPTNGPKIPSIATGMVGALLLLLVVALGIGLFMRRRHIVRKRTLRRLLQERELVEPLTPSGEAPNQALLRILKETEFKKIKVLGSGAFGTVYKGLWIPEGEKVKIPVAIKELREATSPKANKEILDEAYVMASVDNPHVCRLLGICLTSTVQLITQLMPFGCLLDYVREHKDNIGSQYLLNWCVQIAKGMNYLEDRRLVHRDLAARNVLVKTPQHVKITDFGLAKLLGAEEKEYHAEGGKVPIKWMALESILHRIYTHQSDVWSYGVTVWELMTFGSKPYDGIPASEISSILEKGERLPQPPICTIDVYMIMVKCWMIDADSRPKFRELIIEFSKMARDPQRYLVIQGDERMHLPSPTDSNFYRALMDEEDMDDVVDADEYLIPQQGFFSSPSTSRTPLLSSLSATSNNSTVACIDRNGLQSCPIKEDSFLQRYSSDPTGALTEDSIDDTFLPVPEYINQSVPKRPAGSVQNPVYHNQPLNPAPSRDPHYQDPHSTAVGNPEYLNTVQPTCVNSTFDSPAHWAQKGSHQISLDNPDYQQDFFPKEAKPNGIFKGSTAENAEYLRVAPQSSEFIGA", "assay": "Selectivity interaction (Kinase panel (Invitrogen)) EUB0000639a EGFR", "settings": "at 200 nM"}, "[7]": {"biological_target": "T3, Mitogen-activated protein kinase kinase kinase 6 (Homo sapiens) (UniProt O95382)", "T3 sequence (whole entry)": "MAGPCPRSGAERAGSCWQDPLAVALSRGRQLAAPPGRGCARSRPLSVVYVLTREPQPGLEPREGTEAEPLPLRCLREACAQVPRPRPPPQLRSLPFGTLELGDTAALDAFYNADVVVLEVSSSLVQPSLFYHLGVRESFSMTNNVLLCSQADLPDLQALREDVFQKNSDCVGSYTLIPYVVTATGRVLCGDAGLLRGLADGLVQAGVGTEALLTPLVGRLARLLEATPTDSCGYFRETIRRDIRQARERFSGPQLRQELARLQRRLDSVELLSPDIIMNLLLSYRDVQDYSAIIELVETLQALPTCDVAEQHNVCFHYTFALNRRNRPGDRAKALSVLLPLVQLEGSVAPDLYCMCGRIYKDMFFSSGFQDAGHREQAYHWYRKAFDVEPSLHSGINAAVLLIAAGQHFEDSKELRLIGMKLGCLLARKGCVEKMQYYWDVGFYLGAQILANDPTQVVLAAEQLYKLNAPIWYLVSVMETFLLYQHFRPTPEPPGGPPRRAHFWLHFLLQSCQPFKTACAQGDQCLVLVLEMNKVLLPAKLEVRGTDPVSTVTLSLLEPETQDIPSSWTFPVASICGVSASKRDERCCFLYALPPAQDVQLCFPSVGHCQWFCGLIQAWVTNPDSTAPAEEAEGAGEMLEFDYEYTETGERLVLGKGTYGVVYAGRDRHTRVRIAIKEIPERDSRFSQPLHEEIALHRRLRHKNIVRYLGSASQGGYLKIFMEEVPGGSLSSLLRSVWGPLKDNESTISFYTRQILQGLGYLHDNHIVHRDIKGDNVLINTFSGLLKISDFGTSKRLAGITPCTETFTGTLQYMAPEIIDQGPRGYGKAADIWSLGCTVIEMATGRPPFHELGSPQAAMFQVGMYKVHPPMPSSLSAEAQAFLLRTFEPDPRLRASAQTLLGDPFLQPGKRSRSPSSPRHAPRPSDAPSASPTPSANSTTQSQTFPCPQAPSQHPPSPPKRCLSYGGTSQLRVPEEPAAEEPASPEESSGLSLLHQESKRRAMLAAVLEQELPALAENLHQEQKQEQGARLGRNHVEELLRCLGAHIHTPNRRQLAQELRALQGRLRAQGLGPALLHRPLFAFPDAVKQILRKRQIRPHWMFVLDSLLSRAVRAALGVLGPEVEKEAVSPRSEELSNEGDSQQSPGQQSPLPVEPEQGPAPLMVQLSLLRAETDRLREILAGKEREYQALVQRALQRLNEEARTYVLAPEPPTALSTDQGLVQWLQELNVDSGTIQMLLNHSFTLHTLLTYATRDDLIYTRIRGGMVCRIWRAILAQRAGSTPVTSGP", "assay": "Selectivity interaction (ActivX KiNativ screen (kinase selectivity in THP-1 cell lysates)) EUB0000639a MAP3K6", "format": "subcellular", "settings": "lysate"}, "[8]": {"biological_target": "Dual specificity mitogen-activated protein kinase kinase 2 (Homo sapiens) (UniProt P36507)", "sequence (P36507 whole entry)": "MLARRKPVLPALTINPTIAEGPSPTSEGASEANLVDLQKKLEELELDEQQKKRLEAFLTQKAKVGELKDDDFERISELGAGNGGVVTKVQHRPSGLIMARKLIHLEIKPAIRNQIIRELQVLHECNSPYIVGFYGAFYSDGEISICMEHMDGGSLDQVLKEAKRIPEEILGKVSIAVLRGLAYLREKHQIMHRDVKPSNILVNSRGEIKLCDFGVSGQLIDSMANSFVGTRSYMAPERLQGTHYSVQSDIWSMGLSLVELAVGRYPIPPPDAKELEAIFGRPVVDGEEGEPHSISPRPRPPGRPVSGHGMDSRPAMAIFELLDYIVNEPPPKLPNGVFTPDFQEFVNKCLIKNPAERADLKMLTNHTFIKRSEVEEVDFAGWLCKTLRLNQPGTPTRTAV", "assay": "Selectivity interaction (KinomeScan (DiscoverX)) EUB0000655a MAP2K2", "settings": "at 10 µM"}, "[9]": {"biological_target": "MAP kinase-activated protein kinase 2 (Homo sapiens, UniProt P49137)", "sequence (P49137 whole entry, looked up)": "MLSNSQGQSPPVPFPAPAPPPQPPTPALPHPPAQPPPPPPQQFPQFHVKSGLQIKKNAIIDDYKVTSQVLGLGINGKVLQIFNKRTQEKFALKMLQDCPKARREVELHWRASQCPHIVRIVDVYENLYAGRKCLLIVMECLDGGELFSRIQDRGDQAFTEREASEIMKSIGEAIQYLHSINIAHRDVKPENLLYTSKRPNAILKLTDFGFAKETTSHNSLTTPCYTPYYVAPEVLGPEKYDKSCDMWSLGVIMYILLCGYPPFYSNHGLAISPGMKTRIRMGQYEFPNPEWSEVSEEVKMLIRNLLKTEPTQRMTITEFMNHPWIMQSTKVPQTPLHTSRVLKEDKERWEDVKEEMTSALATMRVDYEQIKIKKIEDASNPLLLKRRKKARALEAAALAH", "assay": "Selectivity interaction (Ambit KINOMEscan and KiNATiv profiling in Jurkat cells) EUB0000090b MAPKAPK2", "format": "cell-based", "settings": "at 1 µM"}}}
{"compound": "Cc1ccc(-c2ccc3c(ccc4sc5c(c43)NC[C@@H](C)NC5=O)n2)cn1", "values": [{"measurement": "% of inhibition", "setting": "[1]", "value": 6, "unit": "%"}]}
{"compound": "CCc1cccc(CC)c1NC(=O)c1nn(C)c2c1CCc1cnc(Nc3ccc(C(=O)NC4CCN(C)CC4)cc3OC(F)(F)F)nc1-2", "values": [{"measurement": "IC50", "setting": "[2]", "value": "> 10", "unit": "µM"}]}
{"compound": "CN1Cc2nccc(-c3cn(C)nc3-c3ccc(F)cc3)c2C1=O", "values": [{"measurement": "% of inhibition", "setting": "[3]", "value": 94, "unit": "%"}]}
{"compound": "CNC(=O)Nc1ccc(-c2nc(N3CC4CCC(C3)O4)c3cnn(C4CCC5(CC4)OCCO5)c3n2)cc1", "values": [{"measurement": "% of control", "setting": "[4]", "value": 100, "unit": "%"}]}
{"compound": "O[C@H]1CC[C@H](Nc2ncc3nc(Nc4c(F)cc(F)cc4F)n([C@H]4CCOC4)c3n2)CC1", "values": [{"measurement": "% of control", "setting": "[5]", "value": 90, "unit": "%"}]}
{"compound": "CC[C@@H]1[C@H](F)C(=O)N[C@@H]1COc1nccc2cc(C(N)=O)c(OC)cc12", "note": "[ZIMLOVISERTIB]", "values": [{"measurement": "% of inhibition", "setting": "[6]", "value": 3.43, "unit": "%"}, {"measurement": "% of inhibition", "setting": "[7]; at 0.01 µM", "value": -12.1, "unit": "%"}, {"measurement": "% of inhibition", "setting": "[7]; at 0.04 µM", "value": -3.2, "unit": "%"}, {"measurement": "% of inhibition", "setting": "[7]; at 0.2 µM", "value": 0, "unit": "%"}, {"measurement": "% of inhibition", "setting": "[7]; at 1 µM", "value": -6.5, "unit": "%"}, {"measurement": "% of inhibition", "setting": "[7]; at 5 µM", "value": -21.9, "unit": "%"}]}
{"compound": "CN(C)CCOc1ccc(-c2nc(-c3ccncc3)c(-c3ccc4c(c3)CC/C4=N\\O)[nH]2)cc1", "values": [{"measurement": "% of control", "setting": "[8]", "value": 91, "unit": "%"}]}
{"compound": "CN(C)C/C=C/C(=O)Nc1ccc(C(=O)N2CCCC(Nc3ncc(Cl)c(-c4c[nH]c5ccccc45)n3)C2)cc1", "note": "(stereo not drawn)", "values": [{"measurement": "% of control", "setting": "[9]", "value": 97, "unit": "%"}]}
